Measurements as given in patent US20190308962A1, “FXR (NR1H4) Modulating Compounds” (GILEAD SCIENCES, INC., priority 2016, published 2019).

Assays:
[1] = target: T1, FXR ligand binding domain (Homo sapiens, UniProt Q96RI1); test: Mammalian one hybrid (M1H) Gal4 reporter gene assay in HEK293 cells; type: cell-based; details: Gal4-FXR-LBD, luciferase reporter, 16 h
T1 construct: expressed in transfected cells; host or cells: HEK293 (DSMZ), transient transfection with pCMV-BD-FXR-LBD, pFR-Luc and pRL-CMV
T1 sequence (Q96RI1 187-472 isoform Q96RI1-2): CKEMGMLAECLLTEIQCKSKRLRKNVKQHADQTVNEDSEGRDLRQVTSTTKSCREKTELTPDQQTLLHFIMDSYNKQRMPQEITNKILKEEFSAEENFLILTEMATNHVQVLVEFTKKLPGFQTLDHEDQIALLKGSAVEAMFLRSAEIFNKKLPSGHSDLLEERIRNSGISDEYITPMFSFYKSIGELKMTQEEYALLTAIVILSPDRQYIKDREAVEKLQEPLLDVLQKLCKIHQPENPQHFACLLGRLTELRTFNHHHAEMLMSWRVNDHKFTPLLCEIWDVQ
Method: Determination of a ligand mediated Gal4 promoter driven transactivation to quantify ligand binding mediated activation of FXR was performed as follows.
The cDNA part encoding the FXR ligand binding domain was cloned into vector pCMV-BD (Stratagene) as a fusion to the yeast GAL4 DNA binding domain under the control of the CMV promoter. The amino acid boundaries of the ligand binding domain were amino acids 187-472 of Database entry NM_005123 (RefSeq). The plasmid pFR-Luc (Stratagene) was used as the reporter plasmid, containing a synthetic promoter with five tandem repeats of the yeast GAL4 binding sites, driving the expression of the Photinus pyralis (American firefly) luciferase gene as the reporter gene. In order to improve experimental accuracy the plasmid pRL-CMV (Promega) was cotransfected. pRL-CMV contains the constitutive CMV promoter, controlling the expression of the Renilla reniformis luciferase. All Gal4 reporter gene assays were done in HEK293 cells (obtained from DSMZ, Braunschweig, Germany) grown in MEM with L-Glutamine and Earle's BSS supplemented with 10% fetal bovine serum, 0.1 mM nonessential amino acids, 1 mM sodium pyruvate, and 100 units Penicilin/[…] per mL at 37° C. in 5% CO2. Medium and supplements were obtained from Invitrogen. For the assay, […] cells were plated per well in 96 well plates in 100 μL per well MEM without Phenol Red and L-Glutamine and with Earle's BSS supplemented with 10% charcoal/dextran treated FBS (HyClone, South Logan, Utah), 0.1 mM nonessential amino acids, 2 mM glutamine, 1 mM sodium pyruvate, and 100 units Penicilin/[…] per mL, incubated at 37° C. in 5% CO2. The following day the cells were >90% confluence. Medium was removed and cells were transiently transfected using 20 μL per well of an OptiMEM-polyethylene-imine-based transfection-reagent (OptiMEM, Invitrogen; Polyethyleneimine, Aldrich Cat No. 40, 827-7) including the three plasmids described above. MEM with the same composition as used for plating cells was added 2-4 h after addition of transfection mixture. Then compound stocks, prediluted in MEM were added (final vehicle concentration not exceeding 0.1%). Cells were incubated for additional 16 h before firefly and renilla luciferase activities were measured sequentially in the same cell extract using a Dual-Light-Luciferase-Assay system (Dyer et al., Anal. Biochem. 2000, 282, 158-161). All experiments were done in triplicates.

[2] = target: T2, human FXR alpha ligand binding domain (Homo sapiens, UniProt Q96RI1); test: FRET activity assay (ligand mediated cofactor peptide interaction, LANCE); type: biochemical; details: GST-FXR-LBD / biotinylated SRC-1 peptide (676-700)
T2 construct: made in house; host or cells: E. coli BL21(DE3), vector pDEST15
T2 sequence (Q96RI1 187-472 isoform Q96RI1-2): T1 sequence (Q96RI1 187-472 isoform Q96RI1-2)
Method: Determination of a ligand mediated cofactor peptide interaction to quantify ligand binding to the nuclear receptor FXR was performed as follows.
Preparation of human FXR alpha ligand binding domain: The human FXRalpha LBD was expressed in E. coli strain BL21(DE3) as an N-terminally GST tagged fusion protein. The DNA encoding the FXR ligand binding domain was cloned into vector pDEST15 (Invitrogen). Expression was under control of an IPTG inducible T7 promoter. The amino acid boundaries of the ligand binding domain were amino acids 187-472 of Database entry NM_005123 (RefSeq). Expression and purification of the FXR-LBD: An overnight preculture of a transformed E. coli strain was diluted 1:20 in LB-Ampicillin medium and grown at 30° C. to an optical density of OD600=0.4-0.6. Gene expression was then induced by addition of 0.5 mM IPTG. Cells were incubated an additional 6 h at 30° C., 180 rpm. Cells were collected by centrifugation (7000×g, 7 min, rt). Per liter of original cell culture, cells were resuspended in 10 mL lysis buffer (50 mM Glucose, 50 mM Tris pH 7.9, 1 mM EDTA and 4 mg/mL lysozyme) and left on ice for 30 min. Cells were then subjected to sonication and cell debris removed via centrifugation (22000×g, 30 min, 4° C.). Per 10 mL of supernatant 0.5 mL prewashed Glutathione 4B sepharose slurry (Qiagen) was added and the suspension kept slowly rotating for 1 h at 4° C. Glutathione 4B sepharose beads were pelleted by centrifugation (2000×g, 15 sec, 4° C.) and washed twice in wash buffer (25 mM Tris, 50 mM KCl, 4 mM MgCl2 and 1M NaCl). The pellet was resuspended in 3 mL elution buffer per liter of original culture (elution buffer: 20 mM Tris, 60 mM KCl, 5 mM MgCl2 and 80 mM glutathione added immediately prior to use as powder). The suspension was left rotating for 15 min at 4° C., the beads pelleted and eluted again with half the volume of elution buffer than the first time. The eluates were pooled and dialysed overnight in 20 mM Hepes buffer (pH 7.5) containing 60 mM KCl, 5 mM MgCl2 as well as 1 mM dithiothreitol and 10% (v/v) glycerol. The protein was analysed by SDS-Page.
The method measures the ability of putative ligands to modulate the interaction between the purified bacterial expressed FXR ligand binding domain (LBD) and a synthetic biotinylated peptide based on residues 676-700 of SRC-1 (LCD2, 676-700). The sequence of the peptide used was B-[…]-COOH (SEQ ID NO: 1) where the N-terminus was biotinylated (B). The ligand binding domain (LBD) of FXR was expressed as fusion protein with GST in BL-21 cells using the vector pDEST15. Cells were lysed by sonication, and the fusion proteins purified over glutathione sepharose (Pharmacia) according to the manufacturers instructions. For screening of compounds for their influence on the FXR-peptide interaction, the Perkin Elmer LANCE technology was applied. This method relies on the binding dependent energy transfer from a donor to an acceptor fluorophor attached to the binding partner of interest. For ease of handling and reduction of background from compound fluorescence LANCE technology makes use of generic fluorophore labels and time resolved detection Assays were done in a final volume of 25 μL in a 384 well plate, in a Tris-based buffer (20 mM Tris-HCl pH 7.5; 60 mM KCl, 5 mM MgCl2; 35 ng/μL BSA), containing 20-60 ng/well recombinantly expressed FXR-LBD fused to GST, 200-600 nM N-terminally biotinylated peptide, representing SRC1 aminoacids 676-700, 200 ng/well Streptavidin-xlAPC conjugate (Prozyme) and 6-10 ng/well Eu W1024-antiGST (Perkin Elmer). DMSO content of the samples was kept at 1%. After generation of the assay mix and diluting the potentially FXR modulating ligands, the assay was equilibrated for 1 h in the dark at rt in FIA-plates black 384 well (Greiner). The LANCE signal was detected by a Perkin Elmer VICTOR2V™ Multilabel Counter. The results were visualized by plotting the ratio between the emitted light at 665 and 615 nm. […]

FGF19 = test: In vivo pharmacodynamics in cynomolgus monkey: plasma FGF19 (ELISA); details: oral
Excerpt: (§1) Each dosing group consisted of three male Cynomolgus monkeys.

[3] = Plasma drug exposure in cynomolgus monkey after oral dosing; type: in vivo
Excerpt: as §1

O=C(O)c1ccnc(N2CC(O)(c3ccc(OCc4c(-c5ccc(F)cc5F)noc4C4CC4)cc3Cl)C2)c1 [Example 1, 2-(3-(2-chloro-4-((5-cyclopropyl-3-(2,4-difluorophenyl)isoxazol-4-yl)methoxy)phenyl)-3-hydroxyazetidin-1-yl)isonicotinic Acid]
EC50 [1]: 3000 nM
EC50 [2]: 263 nM

O=C(O)c1ccnc(N2CC(O)(c3ccc(OCc4c(-c5c(Cl)cc(F)cc5Cl)noc4C4CC4)cc3Cl)C2)c1 [Example 2, 2-(3-(2-chloro-4-((5-cyclopropyl-3-(2,6-dichloro-4-fluorophenyl)isoxazol-4-yl)methoxy)phenyl)-3-hydroxyazetidin-1-yl)isonicotinic Acid]
EC50 [1]: 831 nM
EC50 [2]: 25 nM

O=C(O)c1cnc(N2CC(O)(c3ccc(OCc4c(-c5c(Cl)cc(F)cc5Cl)noc4C4CC4)cc3Cl)C2)c(F)c1 [Example 3, 6-(3-(2-chloro-4-((5-cyclopropyl-3-(2,6-dichloro-4-fluorophenyl)isoxazol-4-yl)methoxy)phenyl)-3-hydroxyazetidin-1-yl)-5-fluoronicotinic Acid]
Plasma FGF19 response to increasing doses (FGF19; 3 to 300 mg/kg): dose-dependently increased plasma FGF19
Plasma FGF19 Cmax (FGF19; highest dose (300 mg/kg)): 16000 pg/mL
EC50 [1]: 3.8 nM
Maximal AUC, compared between the two compounds ([3]; 300 mg/kg): comparable
Plasma exposure with increasing doses ([3]; 3 to 300 mg/kg): Dose-dependent increases in plasma exposure
EC50 [2]: 7.4 nM

Cc1onc(-c2c(Cl)cc(F)cc2Cl)c1COc1ccc(C2(O)CN(c3ncc(C(=O)O)cc3F)C2)c(Cl)c1 [Example 4, 6-(3-(2-chloro-4-((3-(2,6-dichloro-4-fluorophenyl)-5-methylisoxazol-4-yl)methoxy)phenyl)-3-hydroxyazetidin-1-yl)-5-fluoronicotinic Acid]
EC50 [1]: 176 nM
EC50 [2]: 35 nM

O=C(O)c1cnc(N2CC(O)(c3ccc(OCc4c(C5CC5)cnn4-c4c(Cl)cc(F)cc4Cl)cc3Cl)C2)c(F)c1 [Example 5, 6-(3-(2-chloro-4-((4-cyclopropyl-1-(2,6-dichloro-4-fluorophenyl)-1H-pyrazol-5-yl)methoxy)phenyl)-3-hydroxyazetidin-1-yl)-5-fluoronicotinic Acid]
EC50 [1]: 8.6 nM
EC50 [2]: 18 nM

COc1ncc(C(=O)O)cc1[C@H]1C[C@](O)(c2ccc(OCc3c(-c4c(Cl)cc(F)cc4Cl)noc3C3CC3)cc2Cl)C1 [Example 6, 5-((1S,3S)-3-(2-chloro-4-((5-cyclopropyl-3-(2,6-dichloro-4-fluorophenyl)isoxazol-4-yl)methoxy)phenyl)-3-hydroxycyclobutyl)-6-methoxynicotinic Acid]
EC50 [1]: 353 nM
EC50 [2]: 49 nM

O=C(NCCS(=O)(=O)O)c1cnc(N2CC(O)(c3ccc(OCc4c(-c5c(Cl)cc(F)cc5Cl)noc4C4CC4)cc3Cl)C2)c(F)c1 [Example 7, 2-(6-(3-(2-chloro-4-((5-cyclopropyl-3-(2,6-dichloro-4-fluorophenyl)isoxazol-4-yl)methoxy)phenyl)-3-hydroxyazetidin-1-yl)-5-fluoronicotinamido)ethane-1-sulfonic Acid]
EC50 [1]: 1700 nM
EC50 [2]: 6.9 nM

O=C(O)CNC(=O)c1cnc(N2CC(O)(c3ccc(OCc4c(-c5c(Cl)cc(F)cc5Cl)noc4C4CC4)cc3Cl)C2)c(F)c1 [Example 8, (6-(3-(2-chloro-4-((5-cyclopropyl-3-(2,6-dichloro-4-fluorophenyl)isoxazol-4-yl)methoxy)phenyl)-3-hydroxyazetidin-1-yl)-5-fluoronicotinoyl)glycine]
EC50 [1]: 1260 nM
EC50 [2]: 8.1 nM
